How the values were obtained:
MMP-9 [1] = assay: Substrate phage display with NGS: relative probability (RP) of P3-P1' tetramer clusters; format: biochemical, human; details: for corresponding MMP9 relative probability (RP): MMP2 tetramers from unique substrates, RP of same tetramer for MMP9
MMP-9 [2] = target: MMP-9 (Homo sapiens, UniProt P14780); assay: K(obs) of individual phage substrates (set of 1369); format: biochemical; details: MMP9; individual phage substrate of the set of 1369 peptides; dash in sequence marks cleavage position
MMP-2 [3] = target: T1, MMP-2 (Homo sapiens, UniProt P08253); assay: as above; format: biochemical; details: MMP2; individual phage substrate from the set of 1369 peptides; hyphen in the sequence marks the cleavage position
T1 sequence (P08253 110-660): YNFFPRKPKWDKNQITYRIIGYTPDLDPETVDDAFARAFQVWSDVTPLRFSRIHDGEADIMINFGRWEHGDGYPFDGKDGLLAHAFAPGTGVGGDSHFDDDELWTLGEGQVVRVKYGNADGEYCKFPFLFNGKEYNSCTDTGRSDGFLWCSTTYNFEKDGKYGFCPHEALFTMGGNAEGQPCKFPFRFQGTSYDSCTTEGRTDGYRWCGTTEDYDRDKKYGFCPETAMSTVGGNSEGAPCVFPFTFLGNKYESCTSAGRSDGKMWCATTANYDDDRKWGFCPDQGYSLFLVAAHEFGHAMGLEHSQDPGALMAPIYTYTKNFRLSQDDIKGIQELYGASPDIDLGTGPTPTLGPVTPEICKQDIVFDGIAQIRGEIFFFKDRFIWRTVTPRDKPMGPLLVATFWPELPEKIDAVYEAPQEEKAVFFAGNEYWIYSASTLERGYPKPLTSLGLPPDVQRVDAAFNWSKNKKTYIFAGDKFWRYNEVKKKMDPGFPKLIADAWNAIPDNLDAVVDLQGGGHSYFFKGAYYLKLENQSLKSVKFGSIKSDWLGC

MMP-2 [4] = assay: Substrate phage display with NGS: relative probability (RP) of P3-P1' tetramer clusters; format: biochemical, human; details: for MMP2 relative probability (RP): MMP2 tetramers from unique substrates, unrounded values
[5] = MMP9, RP of the substrate's P3-P1' tetramer, substrate phage display with NGS
[6] = RP of the P3-P1' tetramer cluster contained in the hexamer, 200 nM MMP-2, 2 h, 37°C, two rounds of selection
[7] = MMP9, RP of the P3-P1' tetramer contained in the hexamer substrate (substrate phage display, NGS)
[8] = RP according to MMP2, P3-P1' tetramer of unique physiologic MMP2 substrates from MEROPS
[9] = RP of the P3-P1' tetramer, MMP2 substrate phage display/NGS, tetramers of physiologic MEROPS substrates common to MMP2 and MMP9
[10] = RP of the P3-P1' tetramer, MMP9 substrate phage display/NGS, tetramers of physiologic MEROPS substrates common to MMP2 and MMP9
[11] = RP according to MMP9, P3-P1' tetramer of unique physiologic MMP9 substrates from MEROPS

Chain of MMP-9 (Homo sapiens, UniProt P14780) (P14780 94-707): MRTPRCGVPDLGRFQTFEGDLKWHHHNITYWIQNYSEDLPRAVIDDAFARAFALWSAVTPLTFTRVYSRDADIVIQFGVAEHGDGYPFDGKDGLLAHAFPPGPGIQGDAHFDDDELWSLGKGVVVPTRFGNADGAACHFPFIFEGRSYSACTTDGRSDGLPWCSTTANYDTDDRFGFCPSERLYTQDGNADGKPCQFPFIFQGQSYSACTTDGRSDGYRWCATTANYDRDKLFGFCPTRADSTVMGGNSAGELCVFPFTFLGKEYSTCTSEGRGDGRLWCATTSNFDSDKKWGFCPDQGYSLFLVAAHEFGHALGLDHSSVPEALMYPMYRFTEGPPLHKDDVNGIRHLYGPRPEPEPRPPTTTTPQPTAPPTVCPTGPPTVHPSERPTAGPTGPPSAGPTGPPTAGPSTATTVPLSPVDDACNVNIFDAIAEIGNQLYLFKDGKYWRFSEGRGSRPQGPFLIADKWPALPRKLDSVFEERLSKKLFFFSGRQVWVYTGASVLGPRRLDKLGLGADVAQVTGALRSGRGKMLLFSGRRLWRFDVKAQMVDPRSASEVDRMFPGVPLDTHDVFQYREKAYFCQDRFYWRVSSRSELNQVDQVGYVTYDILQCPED

## KIPSA-LTASG
MMP-9 [1]; [5]
  relative probability (RP): 47.6113
MMP-9 [2]
  Kobs: 9740.44 M⁻¹ s⁻¹
MMP-2 [3]
  Kobs: 12792.1 M⁻¹ s⁻¹

## WYPSK-LTASG
MMP-9 [1]; [5]
  relative probability (RP): 38.9571
MMP-9 [2]
  Kobs: 10866.7 M⁻¹ s⁻¹
MMP-2 [3]
  Kobs: 12792.1 M⁻¹ s⁻¹

## EGPMR-LTASG
MMP-9 [1]; [5]
  relative probability (RP): 42.6597
MMP-9 [2]
  Kobs: 12792.1 M⁻¹ s⁻¹
MMP-2 [3]
  Kobs: 12792.1 M⁻¹ s⁻¹

## GVPRG-VRTAS
MMP-9 [1]; [5]
  relative probability (RP): 42.1832
MMP-9 [2]
  Kobs: 10866.7 M⁻¹ s⁻¹
MMP-2 [3]
  Kobs: 12792.1 M⁻¹ s⁻¹

## DSPLS-LTASG
MMP-9 [1]; [5]
  relative probability (RP): 48.1735
MMP-9 [2]
  Kobs: 12792.1 M⁻¹ s⁻¹
MMP-2 [3]
  Kobs: 12792.1 M⁻¹ s⁻¹

## FYFSN-LTASG
MMP-9 [1]; [5]
  relative probability (RP): 0.7913
MMP-9 [2]
  Kobs: 0 M⁻¹ s⁻¹
MMP-2 [3]
  Kobs: 12792.1 M⁻¹ s⁻¹

## GGIAA-MRTAS
MMP-9 [1]; [5]
  relative probability (RP): 10.5791
MMP-9 [2]
  Kobs: 386.839 M⁻¹ s⁻¹
MMP-2 [3]
  Kobs: 1071.29 M⁻¹ s⁻¹

## GVPKN-QMTAS
MMP-9 [1]; [5]
  relative probability (RP): 35.1259
MMP-9 [2]
  Kobs: 7815.03 M⁻¹ s⁻¹
MMP-2 [3]
  Kobs: 4205.91 M⁻¹ s⁻¹

## RAPLP-VTASG
MMP-9 [1]; [5]
  relative probability (RP): 40.8342
MMP-9 [2]
  Kobs: 12792.1 M⁻¹ s⁻¹
MMP-2 [3]
  Kobs: 12792.1 M⁻¹ s⁻¹

## GVVGA-LRTAS
MMP-9 [1]; [5]
  relative probability (RP): 19.0529
MMP-9 [2]
  Kobs: 874.197 M⁻¹ s⁻¹
MMP-2 [3]
  Kobs: 10866.7 M⁻¹ s⁻¹

## SVPSA-ITASG
MMP-9 [1]; [5]
  relative probability (RP): 45.9388
MMP-9 [2]
  Kobs: 12792.1 M⁻¹ s⁻¹
MMP-2 [3]
  Kobs: 12792.1 M⁻¹ s⁻¹

## TDIGE-ITASG
MMP-9 [1]; [5]
  relative probability (RP): 0.4519
MMP-9 [2]
  Kobs: 0 M⁻¹ s⁻¹
MMP-2 [3]
  Kobs: 6131.32 M⁻¹ s⁻¹

## SGPSR-LTFTA
MMP-9 [1]; [5]
  relative probability (RP): 39.8157
MMP-9 [2]
  Kobs: 12792.1 M⁻¹ s⁻¹
MMP-2 [3]
  Kobs: 12792.1 M⁻¹ s⁻¹

## KFPWN-YTASG
MMP-9 [1]; [5]
  relative probability (RP): 48.0713
MMP-9 [2]
  Kobs: 12792.1 M⁻¹ s⁻¹
MMP-2 [3]
  Kobs: 2097.28 M⁻¹ s⁻¹

## PTWRG-LTASG
MMP-9 [1]; [5]
  relative probability (RP): 37.3667
MMP-9 [2]
  Kobs: 12792.1 M⁻¹ s⁻¹
MMP-2 [3]
  Kobs: 5269.78 M⁻¹ s⁻¹

## GQPRA-IRTAS
MMP-9 [1]; [5]
  relative probability (RP): 47.8426
MMP-9 [2]
  Kobs: 12792.1 M⁻¹ s⁻¹
MMP-2 [3]
  Kobs: 12792.1 M⁻¹ s⁻¹

## YHPIS-LTASG
MMP-9 [1]; [5]
  relative probability (RP): 42.7806
MMP-9 [2]
  Kobs: 12792.1 M⁻¹ s⁻¹
MMP-2 [3]
  Kobs: 12792.1 M⁻¹ s⁻¹

## QRWFA-LTASG
MMP-9 [1]; [5]
  relative probability (RP): 14.7831
MMP-9 [2]
  Kobs: 6688.74 M⁻¹ s⁻¹
MMP-2 [3]
  Kobs: 2038.8 M⁻¹ s⁻¹

## MGPWG-MTASG
MMP-9 [1]; [5]
  relative probability (RP): 49.8335
MMP-9 [2]
  Kobs: 12792.1 M⁻¹ s⁻¹
MMP-2 [3]
  Kobs: 4335.13 M⁻¹ s⁻¹

## PKALPY
MMP-2 [4]; [6]
  relative probability (RP): 34.4858
MMP-9 [1]; [7]
  relative probability (RP): 48.3581

## MASQ
MMP-2 [4]
  MMP2 relative probability (RP): 16.7049
MMP-2 [4]; [8]
  Relative probability (RP) rank: 2583
  relative probability (RP): 16.7
MMP-9 [1]
  corresponding MMP9 relative probability (RP): 0

## VSSL
MMP-2 [4]; MMP2 - no binning, average relative probability of the P3-P1' tetramer, redundant tetramers have been averaged out
  avg_RP: 29.0891
MMP-2 [4]; MMP2, RP of matching P3-P1' tetramer, common set of MMP2-9 selectome, RP above KL threshold
  relative probability (RP) (acc.to MMP2): 29.09
MMP-2 [4]; P3-P1' tetramer matching the MS detected MMP2 cleavage sequence, RP_above_4.5
  relative probability (RP) of matching tetramer: 29.09
MMP-9 [1]; MMP9, RP of matching P3-P1' tetramer, common set of MMP2-9 selectome
  relative probability (RP) (acc.to MMP9): 17.98

## PRKQ
MMP-2 [4]; MMP9 tetramers from unique substrates, RP of same tetramer for MMP2
  corresponding MMP2 relative probability (RP): 15.8695
MMP-9 [1]; MMP9 tetramers from unique substrates, unrounded values
  MMP9 relative probability (RP): 2.4663

## APGN
MMP-2 [4]; [9]
  relative probability (RP) (acc.to MMP2): 3.62
MMP-9 [1]; [10]
  relative probability (RP) (acc.to MMP9): 2.38

## PIQLQS
MMP-2 [4]; [6]
  relative probability (RP): 19.2979
MMP-9 [1]; [7]
  relative probability (RP): 35.2784

## PDAL
MMP-2 [4]; RP of matching tetramer, common MMP2-9 selectome
  relative probability (RP) (acc.to MMP2): 7.73
MMP-9 [1]; MMP9, RP of the P3-P1' tetramer matching the MS detected cleavage, RP above 4.7, substrate phage display with NGS
  relative probability (RP): 29.54
MMP-9 [1]; RP of matching tetramer, common MMP2-9 selectome, RP above KL threshold
  relative probability (RP) (acc.to MMP9): 29.54

## VAEM
MMP-2 [4]
  MMP2 relative probability (RP): 19.6601
MMP-2 [4]; [8]
  Relative probability (RP) rank: 1857
  relative probability (RP): 19.66
MMP-2 [4]; [9]
  relative probability (RP) (acc.to MMP2): 19.66
MMP-9 [1]
  corresponding MMP9 relative probability (RP): 2.985
MMP-9 [1]; [11]
  Relative probability (RP) rank: 7772
  relative probability (RP): 2.99
MMP-9 [1]; [10]
  relative probability (RP) (acc.to MMP9): 2.99
